In assay [1] the target is T1, recombinant human ALK5 (TGF-βR1) protein (Homo sapiens, UniProt P36897).
T1 construct: purchased Life Technologies PR9075A
T1 sequence (P36897 34-503): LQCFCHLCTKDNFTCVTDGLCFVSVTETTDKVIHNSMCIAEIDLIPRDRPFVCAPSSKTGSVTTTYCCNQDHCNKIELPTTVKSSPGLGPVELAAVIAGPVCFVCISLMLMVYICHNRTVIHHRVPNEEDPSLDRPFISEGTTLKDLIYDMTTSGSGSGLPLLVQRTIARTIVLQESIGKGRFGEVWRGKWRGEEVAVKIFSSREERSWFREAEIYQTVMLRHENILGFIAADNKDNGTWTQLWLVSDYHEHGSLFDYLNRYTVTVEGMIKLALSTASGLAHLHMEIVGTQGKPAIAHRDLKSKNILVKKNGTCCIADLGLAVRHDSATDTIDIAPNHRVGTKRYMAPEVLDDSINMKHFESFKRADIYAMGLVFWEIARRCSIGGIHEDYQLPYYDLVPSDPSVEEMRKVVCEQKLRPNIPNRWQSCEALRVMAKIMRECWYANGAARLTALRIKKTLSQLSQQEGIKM
The assay can be described thus: Biochemical ALK5 (TGF-βR1) assay to measure pKi (LANCE Ultra ULight kinase assay). Particulars: apparent pKi from pIC50 by Cheng-Prusoff. The method, boiled down: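 After a 60 min room-temperature preincubation of ALK5 with compound, phosphorylation proceeds 60 min at 37 °C on ATP addition (125 μM as 5× stock). Detection: Eu-labelled phospho-Thr1342 Topo IIα antibody in EDTA buffer, pH 7.0; emission 665 nm.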

In assay [2] the test system is TGF-β-stimulated SMAD3 phosphorylation in BEAS-2B cells. The assay can be described thus: Cellular ALK5 potency assay, inhibition of TGF-β stimulated pSMAD3 formation in BEAS-2B cells. Type of assay: cell-based. Particulars: Homo sapiens, read-out: BEAS2B pIC50 (converted). The method, boiled down:
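BEAS-2B human lung epithelial cells, seeded overnight, were pre-treated with compound in HBSS/25 mM HEPES/1% BSA for 1 h at 37 °C, then stimulated with TGF-β (final 10 ng/mL) for 30 min. Lysates were assayed for pSMAD3 by AlphaLISA; pIC50 came from dose-dependent signal change versus TGF-β-stimulated untreated cells.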

The mark [3] stands for this setting: inhibition of TGF-β stimulated pSMAD3 formation, BEAS-2B cells.

Read-outs that look alike come from different tables or passages of the source.

As to `Cc1cccc(-c2[nH]cnc2-c2ccc3ncc(-c4nc(C(=O)O[C@@H]5CCNC5)cs4)cc3c2)n1` [Compound 743, [(3R)-pyrrolidin-3-yl]2-[6-[5-(6-methyl-2-pyridyl)-1H-imidazol-4-yl]-3-quinolyl]thiazole-4-carboxylate], the Ki in assay [1] (read-out: ALK5 pKi (converted)) is 0.0398 to 0.316 nM. The IC50 in assay [2] (setting [3]) is 25.1 to 158 nM.
Consider `Cc1cccc(-c2[nH]cnc2-c2ccc3ncc(Nc4ccc(N5CCN(C)CC5)cn4)cc3n2)n1` [Compound 653, N-(5-(4-methylpiperazin-1-yl)pyridin-2-yl)-6-(5-(6-methylpyridin-2-yl)-1H imidazol-4-yl)-1,5-naphthyridin-3-amine], for which the Ki in assay [1] (read-out: ALK5 pKi (converted)) was 0.0398 to 0.316 nM. Besides, the IC50 in assay [2] (setting [3]) is 25.1 to 158 nM.
In the case of `Cc1cccc(-c2n[nH]cc2-c2ccc3ncc(-c4cnn(CCN)c4)cc3n2)n1` [Compound 305, 2-[4-[6-[3-(6-methyl-2-pyridyl)-1H-pyrazol-4-yl]-1,5-naphthyridin-3-yl]pyrazol-1-yl]ethanamine], in assay [1] (read-out: ALK5 pKi (converted)), the Ki was less than 0.0316 nM. Besides, the IC50 in assay [2] (setting [3]) was 25.1 to 158 nM.
Consider `Cc1cccc(-c2[nH]cnc2-c2ccc3ncc(N4CCN[C@@H](C(=O)O)C4)cc3c2)n1` [Compound 168, (2R)-4-[6-[5-(6-methyl-2-pyridyl)-1H-imidazol-4-yl]-3-quinolyl]piperazine-2-carboxylic acid], for which the Ki in assay [1] (read-out: ALK5 pKi (converted)) is 0.0398 to 0.316 nM. Also, the IC50 in assay [2] (setting [3]) is 1580 to 10000 nM.
The corresponding values for `Cc1cccc(-c2[nH]cnc2-c2ccc3ncc(NC4CCNC4)cc3c2)n1` (centres unmarked) [Compound 184, 6-[5-(6-methyl-2-pyridyl)-1H-imidazol-4-yl]-N-pyrrolidin-3-yl-quinolin-3-amine] are 0.0398 to 0.316 nM and 25.1 to 158 nM.
For `Cc1cccc(-c2n[nH]cc2-c2ccc3ncc(-c4ccccn4)cc3n2)n1` [Compound 518, 2-[3-(6-methyl-2-pyridyl)-1H-pyrazol-4-yl]-7-(2-pyridyl)-1,5-naphthyridine], in assay [1] (read-out: ALK5 pKi (converted)), the Ki is 0.0398 to 0.316 nM. Moreover, the IC50 in assay [2] (setting [3]) is less than 20 nM.
`CCc1cccc(-c2n[nH]cc2-c2ccc3ncc(N4CCC(NC)CC4)cc3n2)n1` [Compound 377, 1-[6-[3-(6-ethyl-2-pyridyl)-1H-pyrazol-4-yl]-1,5-naphthyridin-3-yl]-N-methyl-piperidin-4-amine]: the Ki in assay [1] (read-out: ALK5 pKi (converted)) is less than 0.0316 nM. For the same compound, the IC50 in assay [2] (setting [3]) was 25.1 to 158 nM.
Regarding `Cc1cccc(-c2[nH]cnc2-c2ccc3ncc(C(=O)OC[C@H]4CC[C@H](N)CC4)cc3c2)n1` [Compound 765, (4-aminocyclohexyl)methyl 6-[5-(6-methyl-2-pyridyl)-1H-imidazol-4-yl]quinoline-3-carboxylate], the Ki in assay [1] (read-out: ALK5 pKi (converted)) is 0.0398 to 0.316 nM. The IC50 in assay [2] (setting [3]) was 25.1 to 158 nM.
Turning to `Cc1cccc(-c2[nH]cnc2-c2ccc3ncc(-c4nc(C(=O)OC5CCNCC5)cs4)cc3c2)n1` [Compound 742, 4-piperidyl 2-[6-[5-(6-methyl-2-pyridyl)-1H-imidazol-4-yl]-3-quinolyl]thiazole-4-carboxylate], in assay [1] (read-out: ALK5 pKi (converted)), the Ki is 0.0398 to 0.316 nM. The IC50 in assay [2] (setting [3]) is 25.1 to 158 nM.
On to `Cc1cccc(-c2[nH]ncc2-c2ccc3ncc(-c4nnco4)cc3n2)n1` [Compound 677, 2-[6-[5-(6-methyl-2-pyridyl)-1H-pyrazol-4-yl]-1,5-naphthyridin-3-yl]-1,3,4-oxadiazole], for which, in assay [1] (read-out: ALK5 pKi (converted)), the Ki is 0.0398 to 0.316 nM. Moreover, the IC50 in assay [2] (setting [3]) was 25.1 to 158 nM.
The corresponding values for `Cc1cccc(-c2[nH]cnc2-c2ccc3ncc(-c4csc(C(=O)OCCN5CC[C@@H](N)C5)c4)cc3c2)n1` [Compound 1220, 2-[(3R)-3-aminopyrrolidin-1-yl]ethyl 4-[6-[5-(6-methyl-2-pyridyl)-1H-imidazol-4-yl]-3-quinolyl]thiophene-2-carboxylate] are 0.0398 to 0.316 nM and 25.1 to 158 nM.
Turning to `Cc1cccc(-c2n[nH]cc2-c2ccc3ncc(NC(=O)CN4CCN(C(C)C)CC4)cc3n2)n1` [Compound 625, 2-(4-isopropylpiperazin-1-yl)-N-[6-[3-(6-methyl-2-pyridyl)-1H-pyrazol-4-yl]-1,5-naphthyridin-3-yl]acetamide], in assay [1] (read-out: ALK5 pKi (converted)), the Ki was 0.0398 to 0.316 nM. Also, the IC50 in assay [2] (setting [3]) was 25.1 to 158 nM.
Regarding `Cc1cccc(-c2[nH]cnc2-c2ccc3ncc(NC4CCNCC4)cc3c2)n1` [Compound 187, 6-[5-(6-methyl-2-pyridyl)-1H-imidazol-4-yl]-N-(4-piperidyl)quinolin-3-amine], the Ki in assay [1] (read-out: ALK5 pKi (converted)) is 0.0398 to 0.316 nM. The IC50 in assay [2] (setting [3]) is 200 to 1260 nM.
Take `Cc1cccc(-c2[nH]cnc2-c2ccc3ncc(-c4ccnc(C(=O)OC5CNC5)c4)cc3c2)n1` [Compound 1133, azetidin-3-yl 4-[6-[5-(6-methyl-2-pyridyl)-1H-imidazol-4-yl]-3-quinolyl]pyridine-2-carboxylate]: the Ki in assay [1] (read-out: ALK5 pKi (converted)) is 0.0398 to 0.316 nM. For the same compound, the IC50 in assay [2] (setting [3]) is 200 to 1260 nM.
As for `Cc1cccc(-c2n[nH]cc2-c2ccc3ncc(C4=C[C@H]5CC[C@@H](C4)N5)cc3n2)n1` (racemic) [Compound 161, 2-[3-(6-methyl-2-pyridyl)-1H-pyrazol-4-yl]-7-[rac-(1R,5S)-8-azabicyclo[3.2.1]oct-2-en-3-yl]-1,5-naphthyridine], the Ki in assay [1] (ALK5 pKi) lay in the range of 0.0398 to 0.316 nM. Moreover, in assay [2] (BEAS-2B), the IC50 is 25.1 to 158 nM.
For `Cc1cccc(-c2n[nH]cc2-c2ccc3ncc(-c4cnc5n4CCCN5)cc3n2)n1` [Compound 655, 2-[3-(6-methyl-2-pyridyl)-1H-pyrazol-4-yl]-7-(5,6,7,8-tetrahydroimidazo[1,2-a]pyrimidin-3-yl)-1,5-naphthyridine], in assay [1] (read-out: ALK5 pKi (converted)), the Ki is 0.0398 to 0.316 nM. Moreover, the IC50 in assay [2] (setting [3]) was 25.1 to 158 nM.
Take `Cc1cccc(-c2[nH]cnc2-c2ccc3ncc(C4=CCC(O)CC4)cc3c2)n1` (centres unmarked) [Compound 432, 4-[6-[5-(6-methyl-2-pyridyl)-1H-imidazol-4-yl]-3-quinolyl]cyclohex-3-en-1-ol]: the Ki in assay [1] (read-out: ALK5 pKi (converted)) is less than 0.0316 nM. Moreover, the IC50 in assay [2] (setting [3]) is less than 20 nM.
With `Cc1cccc(-c2[nH]cnc2-c2ccc3ncc(-c4nccc(C(=O)O[C@@H]5CCNC5)n4)cc3c2)n1` [Compound 1093, [(3R)-pyrrolidin-3-yl] 2-[6-[5-(6-methyl-2-pyridyl)-1H-imidazol-4-yl]-3-quinolyl]pyrimidine-4-carboxylate], in assay [1] (read-out: ALK5 pKi (converted)), the Ki is 0.398 to 3.16 nM. Besides, the IC50 in assay [2] (setting [3]) is 200 to 1260 nM.
For `COC(=O)[C@H]1CCCCN1CCNc1cnc2ccc(-c3nc[nH]c3-c3cccc(C)n3)cc2c1` [Compound 706, methyl (2R)-1-[2-[[6-[5-(6-methyl-2-pyridyl)-1H-imidazol-4-yl]-3-quinolyl]amino]ethyl]piperidine-2-carboxylate], the Ki in assay [1] (read-out: ALK5 pKi (converted)) is 0.0398 to 0.316 nM. For the same compound, the IC50 in assay [2] (setting [3]) is 25.1 to 158 nM.
`Cc1cccc(-c2n[nH]cc2-c2ccc3nccc(N4CCNCC4)c3c2)n1` [Compound 868, 6-[3-(6-methyl-2-pyridyl)-1H-pyrazol-4-yl]-4-piperazin-1-yl-quinoline]: the Ki in assay [1] (read-out: ALK5 pKi (converted)) is 0.398 to 3.16 nM. Also, the IC50 in assay [2] (setting [3]) was 25.1 to 158 nM.
On the same counts, the results for `Cc1cccc(-c2[nH]cnc2-c2ccc3ncc(-c4cn5c(n4)CNCC5)cc3c2)n1` [Compound 645, 6-[5-(6-methyl-2-pyridyl)-1H-imidazol-4-yl]-3-(5,6,7,8-tetrahydroimidazo[1,2-a]pyrazin-2-yl)quinoline] are 0.0398 to 0.316 nM and 200 to 1260 nM.
On the same counts, the results for `Cc1cccc(-c2n[nH]cc2-c2ccc3ncc(-c4cn(Cc5cnc6c(c5)CNCC6)nn4)cc3n2)n1` [Compound 325, 2-[3-(6-methyl-2-pyridyl)-1H-pyrazol-4-yl]-7-[1-(5,6,7,8-tetrahydro-1,6-naphthyridin-3-ylmethyl)triazol-4-yl]-1,5-naphthyridine] are less than 0.0316 nM and 200 to 1260 nM.

The values above are taken from patent US11590116B2 (THERAVANCE BIOPHARMA R&D IP, LLC, priority 2019, dated 2023).
